For one data set, the system named is CYP3A4. The experiment in a line: CYP3A4 induction potential for ADME profile evaluation (CYP3A4 mRNA by RT-PCR in primary human hepatocytes). The following applies: approximately 48 hours, 0.3-10 μM, relative to 10 μM rifampicin. The data set is classed as in vitro ADME. Here is the method:
Such test is based, for example, on the quantification of CYP3A4 mRNA induction performed by RT-PCR analysis. Said % Emax may be calculated as detailed in the illustrative part under the following formula:
[formula] • ECompound: relative fold mRNA expression following treatment with test compound, • EPositive control: relative fold mRNA expression following reference inducer i.e., 10 μM rifampicin, • EVehicle control: relative fold mRNA expression following vehicle treatment i.e., 0.1% DMSO, and • E is the efficiency of the quantitative PCR.
Said test evaluates the potential induction effect of the tested compounds on CYP3A4 gene expression in primary cultures of human hepatocytes from one or two donors with established concentration-dependent response to the reference inducer, rifampicin.
Before seeding, cell viability was estimated using the Trypan blue dye exclusion test. Hepatocytes were seeded on collagen I-coated 96-well plates at a density of 70 000 cells/well in 100 μL of plating medium for at least 4 hours under a humidified atmosphere of CO2/air (5%/95%), at 37° C. After the cell attachment period, the plating medium was removed, and the hepatocytes were treated daily for 2 consecutive days (approximately 48 hours), with 100 μL per well of fresh culture medium containing either the vehicle control (0.1% DMSO) or the investigated compounds at four concentrations 0.3, 1, 3 and 10 μM, or rifampicin, the reference inducer at 10 μM. All incubations were performed in duplicates.
Ten mM stock solutions of the different compounds were diluted to obtain 0.3, 1 and 3 mM daughter solutions. The day of the experiment, stock solutions were diluted 1000-fold in the incubation/culture medium to achieve final concentrations of 0.3, 1, 3 and 10 μM.
After the 48-hour incubation period with the test compounds, the cell culture medium was removed, and the cells were lysed to release the RNA for CYP3A4 gene expression assessment. Quantification of CYP3A4 mRNA induction was performed by RT-PCR analysis.
Total RNA was extracted from hepatocytes using the King Fisher™ Flex Purification System with the MagMAX mirVana Total RNA Isolation kit (Thermo Fisher Scientific, USA). RNA was quantified by fluorimetry using the Quantifluor RNA System (Promega, USA) and cDNAs were synthesized from […] total RNA using the iScript Reverse Transcription Supermix for RT-qPCR from Biorad (France) at 42° C. for 30 min. cDNA samples were then diluted in water (1:5) and 5 μL of each sample was used for real-time PCR amplification by using the SYBR Green kit from Biorad (France). The following program was used: a denaturation step at 95° C. for 30 sec, and 40 cycles of PCR (denaturation, 95° C., 10 sec and annealing and extension, 58° C., 1 min). In all cases, the quality of the PCR product was assessed by monitoring a fusion step at the end of the run. Human forward and reverse primer sequences used were: 5′-CCT-GGC-ACC-CAG-CAC-AAT-3′ and 5′-GGG-CCG GAC-TCG-TCA-TAC-3′ for actin, 5′-CAC-AAA-CG-GAG-GCC-TTT-TG-3′ and 5′-ATC-CAT-GCT-GTA-GGC-CCC-AA-3′ for CYP3A4.
Cq (quantification cycle) values were determined using a multi-variable, non-linear regression model to individual well traces and then using this model an optimal Cq value was computed. Cq values are inversely proportional to the amount of target nucleic acid in the sample (i.e., lowest Cq level corresponds to the greatest amount of target nucleic acid in the sample). Cq of reference gene (in this study human actin) was also used as positive control of quantitative PCR.
The extent of induction or % of Emax, resulting from treatment with test compounds was calculated under the following formula: […]

In another data set the target is T1, ERα (Homo sapiens, UniProt P03372).
T1 construct: host or cells: MCF7
T1 sequence (P03372 1-595): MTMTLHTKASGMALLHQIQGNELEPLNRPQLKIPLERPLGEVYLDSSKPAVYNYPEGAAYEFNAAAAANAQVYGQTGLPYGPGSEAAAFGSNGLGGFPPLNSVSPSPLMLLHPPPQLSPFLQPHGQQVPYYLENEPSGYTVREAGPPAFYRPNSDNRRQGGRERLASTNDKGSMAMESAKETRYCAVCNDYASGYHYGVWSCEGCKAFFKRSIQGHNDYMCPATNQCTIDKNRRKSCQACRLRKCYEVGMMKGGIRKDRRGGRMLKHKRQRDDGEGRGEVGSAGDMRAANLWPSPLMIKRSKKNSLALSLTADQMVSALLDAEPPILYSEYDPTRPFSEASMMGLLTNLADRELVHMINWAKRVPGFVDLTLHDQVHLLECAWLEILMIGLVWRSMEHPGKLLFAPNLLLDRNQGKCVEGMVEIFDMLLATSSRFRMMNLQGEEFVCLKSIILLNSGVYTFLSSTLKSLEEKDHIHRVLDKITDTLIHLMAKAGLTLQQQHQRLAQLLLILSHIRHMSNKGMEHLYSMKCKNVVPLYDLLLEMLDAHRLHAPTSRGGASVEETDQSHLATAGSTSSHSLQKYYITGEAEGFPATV
The experiment in a line: Estrogen receptor degradation activity (breast cancer cell ERα in cell western assay). Particulars: MCF7 cells; for % Degradation At 0.3 μM: 4 hours, % of ERα levels decrease relative to fulvestrant. The data set is classed as cell-based. A digest of the protocol:
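MCF7 cells in phenol red-free MEM alpha with 5% charcoal-stripped FBS were exposed for 4 h to 9-point 1:5 dilutions (0.3–0.0000018 μM final). In-cell western: anti-ERα immunofluorescence normalized to Syto-64 DNA stain, scaled between DMSO and 0.1 μM fulvestrant; IC50 as 50% ERα degradation, in nM.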

As to `Cl.O=C(O)c1ccc2c(c1)CCCC(c1ccc(F)cc1Cl)=C2c1ccc(CC2CCN(CCCF)C2)cc1` (single isomer, unassigned; isomer 1) [Compound 2, 8-(2-chloro-4-fluorophenyl)-9-(4-((1-(3-fluoropropyl)pyrrolidin-3-yl)methyl)phenyl)-6,7-dihydro-5H-benzo[7]annulene-3-carboxylic acid hydrochloride, Isomer 1], the “CYP3A4 induction Emax (%)” value in the data set with CYP3A4 is recorded as 23%. Besides, the “% Degradation At 0.3 μM” value at ERα stood at 74%.

Turning to `O=C(O)c1ccc2c(c1)CCCC(c1ccc(Cl)cc1Cl)=C2c1ccc(N[C@H]2CCN(CCCF)C2)cc1` [Compound C2, (S)-8-(2,4-Dichlorophenyl)-9-(4-((1-(3-fluoropropyl)pyrrolidin-3-yl)amino)phenyl)-6,7-dihydro-5H-benzo[7]annulene-3-carboxylic acid, reference compound], in the data set on CYP3A4, the “CYP3A4 induction Emax (%)” value is on record as 85%. Moreover, on ERα, the “% Degradation At 0.3 μM” value was 89%. The “degradation activity on estrogen receptors (in words)” value at ERα (tested at 0.3 μM) is “significant degradation activity”.

On to `O=C(O)c1ccc2c(c1)CCCC(c1cccc(Cl)c1F)=C2c1ccc(CC2CCN(CCCF)C2)cc1` (single isomer, unassigned; isomer 1) [Compound 16, 8-(3-chloro-2-fluorophenyl)-9-(4-((1-(3-fluoropropyl)pyrrolidin-3-yl)methyl)phenyl)-6,7-dihydro-5H-benzo[7]annulene-3-carboxylic acid, Isomer 1], for which, in the data set on CYP3A4, the “CYP3A4 induction Emax (%)” value was 22%. Moreover, the “% Degradation At 0.3 μM” value at ERα stood at 88%.

Values taken from patent US20250248970A1, “NOVEL SUBSTITUTED FLUORINATED N-PROPYL-PYRROLIDINE COMPOUNDS, PROCESSES FOR THEIR PREPARATION AND THERAPEUTIC USES THEREOF” (SANOFI, priority 2022, published 2025).
